Data from ChEMBL document CHEMBL5344468, “Novel Heterocyclic PAD4 Inhibitors for Treating Diseases” (ACS Med Chem Lett, 2024).

Target: Protein-arginine deiminase type-4 (Homo sapiens, UniProt Q9UM07)
Assay: Inhibition of human PAD4 using BAEE as substrate preincubated with enzyme for 30 mins followed by substrate addition for 90 mins and later incubated with phenyl glyoxal for 30 mins by RFMS assay

Chain of Protein-arginine deiminase type-4 (Q9UM07 whole entry): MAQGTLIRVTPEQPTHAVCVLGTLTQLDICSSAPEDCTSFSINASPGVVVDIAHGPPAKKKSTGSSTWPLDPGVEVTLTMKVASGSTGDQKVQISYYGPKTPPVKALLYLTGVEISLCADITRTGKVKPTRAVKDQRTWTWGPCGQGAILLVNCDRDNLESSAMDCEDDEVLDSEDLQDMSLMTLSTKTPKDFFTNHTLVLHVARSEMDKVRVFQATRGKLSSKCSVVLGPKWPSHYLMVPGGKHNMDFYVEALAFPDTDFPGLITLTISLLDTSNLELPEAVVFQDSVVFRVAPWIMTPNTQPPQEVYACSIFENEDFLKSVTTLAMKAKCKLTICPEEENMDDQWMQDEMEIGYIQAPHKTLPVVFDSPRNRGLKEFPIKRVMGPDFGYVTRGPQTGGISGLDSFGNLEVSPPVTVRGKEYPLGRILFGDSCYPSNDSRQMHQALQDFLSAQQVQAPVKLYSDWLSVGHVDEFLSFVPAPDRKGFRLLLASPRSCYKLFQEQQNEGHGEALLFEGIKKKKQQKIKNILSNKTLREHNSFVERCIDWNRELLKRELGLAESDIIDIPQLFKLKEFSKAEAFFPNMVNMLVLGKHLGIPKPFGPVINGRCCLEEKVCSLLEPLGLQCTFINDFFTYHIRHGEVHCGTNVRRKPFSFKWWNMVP

IC50, ≤ 10 nM:
Cn1c(-c2cc3cccc(OCCc4ccon4)c3n2CC2CC2)nc2cc3c(nc21)CCN(C[C@H](N)CF)C3=O
Cn1c(-c2cc3cccc(OCCc4cccnc4)c3n2CC2CC2)nc2cc3c(nc21)CCN(C[C@H](N)CF)C3=O
Cn1c(-c2cc3ccnc(OCCn4ccnc4)c3n2CC2CC2)nc2cc3c(nc21)CCN(C[C@H](N)CF)C3=O
Cn1c(-c2cc3cccc(OCCc4cnco4)c3n2CC2CC2)nc2cc3c(nc21)CCN(C[C@H](N)CF)C3=O
Cn1c(-c2cc3cccc(OCCc4ccn[nH]4)c3n2CC2CC2)nc2cc3c(nc21)CCN(C[C@H](N)CF)C3=O
Cn1c(-c2cc3cccc(OCCc4cnn[nH]4)c3n2CC2CC2)nc2cc3c(nc21)CCN(C[C@H](N)CF)C3=O
